Key:
[1] = Single-dose comparative pharmacokinetic study, IV and oral, fasted and fed; format: in vivo, Beagle dogs
Experimental: A single-dose comparative pharmacokinetic (PK) study was conducted in Beagle dogs to assess the oral bioavailability and the effect of food on the “E559 polymorph” (FIG. 12). Four male dogs were used in 3 test groups in a cross-over design with at least 3 days washout period between each test group (Groups 1, 2 and 3). In Group 1, four male dogs received a single intravenous (IV) dose of 0.0324 mg/kg of the “polymorph E559”. In Group 2 the same four dogs received a single oral dose of 0.324 mg/kg of the “polymorph E559” in fasted state. In Group 3 the same four dogs received a single oral dose of 0.324 mg/kg of the “E559 polymorph” in the fed state (same oral dose amount as in Group 2). Blood samples were collected from all dogs at pre-dose and 0.08, 0.25, 0.5, 1, 2, 4, 8, and 24 hours post dose to measure the “E559 polymorph” levels by LC-MS/MS method conducted as described in Example 3.

[2] = biological target: ADRa1B (α1B adrenergic receptor) (Homo sapiens, UniProt P35368); experiment: BRET-based G protein dissociation assay; format: cell-based
Chain of ADRa1B (α1B adrenergic receptor) (P35368 whole entry): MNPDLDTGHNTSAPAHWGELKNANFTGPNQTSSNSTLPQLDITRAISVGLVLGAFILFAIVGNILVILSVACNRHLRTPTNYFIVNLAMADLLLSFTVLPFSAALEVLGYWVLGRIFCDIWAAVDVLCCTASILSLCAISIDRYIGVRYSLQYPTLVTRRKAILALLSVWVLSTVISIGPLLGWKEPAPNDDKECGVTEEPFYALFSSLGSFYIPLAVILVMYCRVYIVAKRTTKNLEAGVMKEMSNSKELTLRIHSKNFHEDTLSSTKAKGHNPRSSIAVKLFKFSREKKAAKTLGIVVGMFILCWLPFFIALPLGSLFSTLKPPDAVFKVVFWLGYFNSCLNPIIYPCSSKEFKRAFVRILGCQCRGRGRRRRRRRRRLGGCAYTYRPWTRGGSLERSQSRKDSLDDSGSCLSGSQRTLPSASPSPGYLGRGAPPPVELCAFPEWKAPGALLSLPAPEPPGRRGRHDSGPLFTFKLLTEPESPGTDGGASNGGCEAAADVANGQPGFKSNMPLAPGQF

D1 dopamine receptor = D1 dopamine receptor (Homo sapiens, UniProt P21728); experiment: Radioligand binding, cell membrane homogenates; set-up: expressed in transfected cells; host or cells: HEK-293
Chain of D1 dopamine receptor (P21728 whole entry): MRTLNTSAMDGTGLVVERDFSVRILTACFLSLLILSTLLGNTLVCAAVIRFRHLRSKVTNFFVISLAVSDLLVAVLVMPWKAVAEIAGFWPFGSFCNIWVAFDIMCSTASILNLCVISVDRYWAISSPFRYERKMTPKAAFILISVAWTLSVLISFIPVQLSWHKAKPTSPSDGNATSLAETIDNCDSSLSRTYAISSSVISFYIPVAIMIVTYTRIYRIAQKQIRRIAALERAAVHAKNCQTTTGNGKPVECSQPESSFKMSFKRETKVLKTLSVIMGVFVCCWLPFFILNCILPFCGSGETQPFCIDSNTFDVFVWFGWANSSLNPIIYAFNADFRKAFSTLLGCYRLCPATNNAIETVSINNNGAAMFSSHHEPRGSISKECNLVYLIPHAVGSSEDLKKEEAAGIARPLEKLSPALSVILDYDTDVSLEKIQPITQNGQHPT
Experimental: (§1) Neuro-receptor binding and functional effects of the “E559 polymorph” was examined by analyzing binding affinity [Ki (nM)], functional agonist activity [EC50 (nM)], and functional antagonist activity [IC50 (nM)] against a panel of key receptors in neurophysiological disorders. Binding and functional assays were performed at “E559 polymorph” concentrations of 0.0003, 0.003, 0.01, 0.03, 0.1, 0.3, 1, and 10 μM. In binding assays, cell membrane homogenates, expressing each receptor target, were incubated with the corresponding radio-ligand in absence or presence of several concentration of the “E559 polymorph” compound. The measurement of binding affinity of the “E559 polymorph” is represented in TABLE XIII by Ki (nM) which was calculated as percent inhibition of the binding of a radioactively labeled reference ligand at each receptor. […] Following incubation, the cells were lysed and the appropriate fluorescent probe (Ca2+ flux, cAMP, or IP1) were added for 60 minutes to measure the fluorescence transfer at the appropriate wavelength using a microplate reader. The cellular agonist effect (EC50) was calculated as a percent of control response to a known reference agonist and the cellular antagonist effect (IC50) was calculated as a percent inhibition of control reference agonist response for each receptor.

[3] = biological target: T1, Beta 2 adrenergic receptor (Homo sapiens, UniProt P07550); experiment: Functional assay in HEK-293 cells (cAMP); format: cell-based
T1 construct: expressed in transfected cells; host or cells: HEK-293
T1 sequence (P07550 whole entry): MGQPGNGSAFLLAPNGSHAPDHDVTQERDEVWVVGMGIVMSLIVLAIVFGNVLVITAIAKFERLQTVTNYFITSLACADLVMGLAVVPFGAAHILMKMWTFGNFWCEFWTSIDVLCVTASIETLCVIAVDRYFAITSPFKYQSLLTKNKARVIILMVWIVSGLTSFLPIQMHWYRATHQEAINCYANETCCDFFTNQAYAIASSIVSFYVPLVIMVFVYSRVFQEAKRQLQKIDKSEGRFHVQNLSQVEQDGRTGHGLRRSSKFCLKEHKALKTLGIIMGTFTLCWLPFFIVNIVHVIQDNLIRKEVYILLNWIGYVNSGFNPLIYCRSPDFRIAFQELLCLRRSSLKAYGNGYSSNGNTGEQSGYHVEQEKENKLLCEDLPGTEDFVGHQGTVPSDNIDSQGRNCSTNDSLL
Experimental: (§2) Neuro-receptor binding and functional effects of the “E559 polymorph” was examined by analyzing binding affinity [Ki (nM)], functional agonist activity [EC50 (nM)], and functional antagonist activity [IC50 (nM)] against a panel of key receptors in neurophysiological disorders. Binding and functional assays were performed at “E559 polymorph” concentrations of 0.0003, 0.003, 0.01, 0.03, 0.1, 0.3, 1, and 10 μM. In binding assays, cell membrane homogenates, expressing each receptor target, were incubated with the corresponding radio-ligand in absence or presence of several concentration of the “E559 polymorph” compound. The measurement of binding affinity of the “E559 polymorph” is represented in TABLE XIII by Ki (nM) which was calculated as percent inhibition of the binding of a radioactively labeled reference ligand at each receptor. In functional assays the HEK-293 cells expressing each receptor target were suspended in buffer and distribute in microplates and incubated for 30 minutes at room temperature or 37° C. in the presence of buffer alone (basal control), the reference agonist or antagonist, or the “E559 polymorph. Following incubation, the cells were lysed and the appropriate fluorescent probe (Ca2+ flux, cAMP, or IP1) were added for 60 minutes to measure the fluorescence transfer at the appropriate wavelength using a microplate reader. The cellular agonist effect (EC50) was calculated as a percent of control response to a known reference agonist and the cellular antagonist effect (IC50) was calculated as a percent inhibition of control reference agonist response for each receptor.

[4] = biological target: T2, Alpha 2B adrenergic receptor (Homo sapiens, UniProt P18089); experiment: Functional assay in HEK-293 cells (cAMP); format: cell-based
T2 construct: expressed in transfected cells; host or cells: HEK-293
T2 sequence (P18089 1-450): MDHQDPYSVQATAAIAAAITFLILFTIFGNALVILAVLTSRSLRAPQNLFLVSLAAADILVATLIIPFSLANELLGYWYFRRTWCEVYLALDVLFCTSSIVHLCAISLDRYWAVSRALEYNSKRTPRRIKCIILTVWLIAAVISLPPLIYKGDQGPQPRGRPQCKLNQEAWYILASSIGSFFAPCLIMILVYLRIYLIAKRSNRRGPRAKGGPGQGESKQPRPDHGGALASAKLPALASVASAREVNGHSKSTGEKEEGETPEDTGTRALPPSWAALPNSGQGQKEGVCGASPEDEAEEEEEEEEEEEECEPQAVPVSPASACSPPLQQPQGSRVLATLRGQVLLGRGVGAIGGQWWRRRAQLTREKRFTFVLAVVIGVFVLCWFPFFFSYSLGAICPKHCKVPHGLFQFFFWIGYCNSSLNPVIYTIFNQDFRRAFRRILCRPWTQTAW
Experimental: as §2

[5] = biological target: T3, Serotonin 7 receptor (5-HT7R) (Homo sapiens, UniProt P34969); experiment: Functional assay in HEK-293 cells (cAMP); format: cell-based
T3 construct: expressed in transfected cells; host or cells: HEK-293
T3 sequence (P34969 whole entry): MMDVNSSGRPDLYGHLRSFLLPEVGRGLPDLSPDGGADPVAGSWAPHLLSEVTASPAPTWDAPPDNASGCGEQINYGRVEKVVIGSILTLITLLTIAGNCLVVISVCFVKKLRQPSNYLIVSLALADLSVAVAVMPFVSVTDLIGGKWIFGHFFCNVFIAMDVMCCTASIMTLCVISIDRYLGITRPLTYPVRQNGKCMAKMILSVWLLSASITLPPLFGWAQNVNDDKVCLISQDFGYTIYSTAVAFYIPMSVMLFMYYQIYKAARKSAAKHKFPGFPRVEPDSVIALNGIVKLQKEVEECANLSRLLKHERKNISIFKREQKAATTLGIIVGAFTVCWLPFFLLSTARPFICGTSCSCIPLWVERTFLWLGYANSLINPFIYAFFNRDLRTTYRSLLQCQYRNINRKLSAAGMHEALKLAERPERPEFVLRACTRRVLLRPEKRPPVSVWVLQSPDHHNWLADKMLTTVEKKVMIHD
Experimental: as §2

[6] = biological target: T4, Beta 1 adrenergic receptor (Homo sapiens, UniProt P08588); experiment: Functional assay in HEK-293 cells (cAMP); format: cell-based
T4 construct: expressed in transfected cells; host or cells: HEK-293
T4 sequence (P08588 whole entry): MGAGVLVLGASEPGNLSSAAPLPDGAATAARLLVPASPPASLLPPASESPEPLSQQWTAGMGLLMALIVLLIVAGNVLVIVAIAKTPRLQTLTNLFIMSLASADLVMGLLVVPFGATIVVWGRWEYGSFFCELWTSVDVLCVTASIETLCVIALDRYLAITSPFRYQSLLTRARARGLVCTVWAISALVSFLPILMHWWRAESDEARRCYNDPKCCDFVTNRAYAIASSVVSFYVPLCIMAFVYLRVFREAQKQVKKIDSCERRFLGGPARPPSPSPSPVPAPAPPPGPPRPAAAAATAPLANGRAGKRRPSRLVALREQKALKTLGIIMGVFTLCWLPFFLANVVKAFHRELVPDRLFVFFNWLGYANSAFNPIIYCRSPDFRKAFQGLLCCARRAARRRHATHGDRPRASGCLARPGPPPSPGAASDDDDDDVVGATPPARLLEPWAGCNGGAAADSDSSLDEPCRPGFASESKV
Experimental: as §2

[7] = biological target: T5, Serotonin 2C receptor (5-HT2CR) (Homo sapiens, UniProt P28335); experiment: Functional assay in HEK-293 cells (IP1); format: cell-based
T5 construct: expressed in transfected cells; host or cells: HEK-293
T5 sequence (P28335 33-458): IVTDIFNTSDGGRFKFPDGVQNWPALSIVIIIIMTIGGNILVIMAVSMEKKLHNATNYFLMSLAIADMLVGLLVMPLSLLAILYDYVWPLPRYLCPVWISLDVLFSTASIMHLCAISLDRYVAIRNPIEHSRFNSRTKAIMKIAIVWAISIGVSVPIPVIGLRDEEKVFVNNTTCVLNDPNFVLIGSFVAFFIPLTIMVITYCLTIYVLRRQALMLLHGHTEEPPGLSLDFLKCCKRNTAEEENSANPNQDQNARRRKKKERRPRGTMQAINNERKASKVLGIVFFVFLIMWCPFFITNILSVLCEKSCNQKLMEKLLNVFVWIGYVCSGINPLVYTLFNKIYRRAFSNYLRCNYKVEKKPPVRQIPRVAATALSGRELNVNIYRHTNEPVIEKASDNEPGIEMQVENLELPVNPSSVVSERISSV
Experimental: as §1

Compound: CCN(CC)C(=O)[C@@H]1C=C2c3cccc4[nH]c(Br)c(c34)C[C@H]2N(C)C1 [E559, (5R, 8R)-2-Bromo-9,10-didehydro-N,N-diethyl-6-methylergoline-8-carboxamide hemi-D-tartrate]
- oral bioavailability ([1]; oral 0.324 mg/kg vs IV 0.0324 mg/kg): good oral bioavailability
- effect of food on oral bioavailability ([1]; oral 0.324 mg/kg, fasted vs fed): no differences in the mean absolute and relative oral bioavailability between fasted and fed dogs
- Kb [2]: 55.9 nM
- Ki (D1 dopamine receptor): 25 nM
- EC50 [3]: > 10000 nM
- IC50 [3]: 360 nM
- EC50 [4]: > 10000 nM
- IC50 [4]: 3600 nM
- EC50 [5]: > 10000 nM
- IC50 [5]: 240 nM
- EC50 [6]: > 10000 nM
- IC50 [6]: 870 nM
- EC50 [7]: > 10000 nM
- IC50 [7]: 1100 nM

Reference: patent publication US12331051B2 (priority 2021, dated 2025)
